Experiments:
[1] = test system: rice (Oryza sativa L. japonica); assay: Effects on rice seedlings under salt-stress caused by sodium chloride (NaCl); format: in vivo; conditions: 7 days after transplantation, mean ± S.E.
Protocol: (§1) A filter paper soaked with an aqueous solution of a test agent was laid in a germination dish. Even-sized seeds of rice (Oryza sativa L. japonica) were selected, washed with an aqueous solution containing 0.5% Tween 20 and 1.0% sodium hypochlorite, and then dried. The gemination dishes were sowed with the said rice seeds.
(§2) The seeds were treated with the aqueous solution of the test agent only during the germination period (4 days). The five seeds having equal root lengths were transplanted from germination dishes to water culture vessels with/without NaCl-solution, not containing any test drug. Lengths and weights of both shoots and roots were measured 7 days after transplantation.
(§3) These tests (30° C., 24 h daylight) were repeated 6 times, and the mean value and standard error (S.E.) were obtained.

cucumber seedlings = assay: Effects on cucumber seedlings under salt-stress caused by NaCl; format: in vivo; conditions: 0.5% NaCl for 25 days, 25~32° C., 12 h daylight, n = 5
Protocol: Cucumber seeds were treated with the aqueous solution of the test agent during the germination period (3 days). 11 days after transplantation from germination dishes to water culture vessels, 0.5% NaCl-solution was added to the vessels. The cucumber seedlings had been for 25 days cultivated in the culture medium containing NaCl.

azalea cuttings = assay: Effect on azaleas under salt-stress caused by CaCl2; format: in vivo; conditions: cuttings in 1×10^-6 M test solution; 20% CaCl2 sprayed; 30 days after CaCl2 treatment; result in words
Protocol: Branches about 20 cm from the top of an azalea bush were cut off. The cuttings were dipped into 50 ml of water of the test solution (compound 9; 1×10^-6 M) in a glass culture tube. The solution was replaced with new solution once a week. Six days after cutting of the branches, a 20% solution of CaCl2, which has been used as an antifreezing agent, was sprayed on the cuttings. Thirty days after the CaCl2 treatment, the rate of azalea budding was measured using the following equation: [formula]

tomato seedlings = assay: Effects on tomato seedlings under salt-stress caused by NaCl; format: in vivo; conditions: 0.5% NaCl for 22 days, 25~30° C., 12 h daylight, n = 12~18
Protocol: Tomato seeds were treated with the aqueous solution of the test agent during the germination period (4 days). 9 days after transplantation from germination dishes to water culture vessels, 0.5% NaCl-solution was added to the vessels. The tomato seedlings had been cultivated for 22 days in the culture medium containing NaCl.

rice seedlings = assay: Effects on rice seedlings under water-stress caused by mannitol; format: in vivo, Oryza sativa L. japonica; conditions: 25° C., 14 h daylight
Protocol: as §1
as §2, with “transplantation. […]” for “transplantation.”
Using mannitol instead of NaCl in the similar manner (I) as mentioned above, the effects of the compounds of the present invention inducing resistance against water-stress were studied.

[2] = test system: rice (Oryza sativa L. japonica); assay: Rice growth in water culture with NaCl in the medium (no test agent); format: in vivo; conditions: for Root length / Shoot length: no test agent, 7 days after transplantation, mean ± S.E.
Protocol: as §1, §2, §3

[3] = 1.5% NaCl, compound 1 × 10^-6 M during germination
[4] = 1.0% NaCl, compound 1 × 10^-4 M during germination (4 days)
[5] = 1.0% NaCl, compound 1 × 10^-10 M during germination
[6] = 1.5% NaCl, compound 1 × 10^-4 M during germination
[7] = 1.5% NaCl, compound 1 × 10^-10 M during germination
[8] = 1.0% NaCl, compound 5 × 10^-6 M during germination
[9] = 1.0% NaCl, compound 5 × 10^-8 M during germination
[10] = 1.5% NaCl, compound 5 × 10^-8 M during germination
[11] = 1.5% NaCl, compound 5 × 10^-10 M during germination
[12] = 1.0% NaCl, compound 5 × 10^-4 M during germination
[13] = 1.5% NaCl, compound 5 × 10^-4 M during germination
[14] = 2.5% mannitol, compound 1 × 10^-4 M
[15] = 2.5% mannitol, compound 1 × 10^-8 M
[16] = 5.0% mannitol, compound 1 × 10^-4 M
[17] = 5.0% mannitol, compound 1 × 10^-8 M
[18] = 1.5% NaCl, compound 5 × 10^-6 M during germination
[19] = 1.0% NaCl, compound 1 × 10^-6 M during germination
[20] = 1.0% NaCl, compound 1 × 10^-8 M during germination
[21] = 1.5% NaCl, compound 1 × 10^-8 M during germination
[22] = 1.5% NaCl, compound 1 × 10^-10-6 M (so in the source) during germination

## O=C1[C@@H]2CCCN2C(=O)[C@@H]2CCCN12 (racemic) [Compound 15, ±Cyclo(Pro-Pro)]
[1]; [3]
  Root length: 42.7 ± 1.65 mm
  Shoot length: 24.2 ± 0.50 mm

## CC(C)C[C@@H]1NC(=O)[C@@H]2CCCN2C1=O [Compound 2, Cyclo (L-Leu-L-Pro)]
[1]; [4]
  Root length: 38.2 ± 1.60 mm
  Shoot length: 30.4 ± 0.60 mm
[1]; [5]
  Root length: 37.3 ± 1.69 mm
  Shoot length: 31.1 ± 0.60 mm
[1]; [6]
  Root length: 38.3 ± 1.89 mm
  Shoot length: 22.3 ± 0.53 mm
[1]; [7]
  Root length: 39.2 ± 2.11 mm
  Shoot length: 21.9 ± 0.53 mm

## CC[C@H](C)[C@@H]1NC(=O)[C@@H]2C[C@@H](O)CN2C1=O [Compound 4, Cyclo(L-Ile-L-Hyp)]
[1]; [8]
  Root length: 19.9 ± 0.60 mm
  Shoot length: 30.9 ± 1.24 mm
[1]; [9]
  Root length: 21.2 ± 0.68 mm
  Shoot length: 27.1 ± 0.67 mm
[1]; [10]
  Root length: 14.9 ± 0.52 mm
  Shoot length: 16.0 ± 0.75 mm
[1]; [11]
  Root length: 14.7 ± 0.52 mm
  Shoot length: 16.3 ± 0.66 mm

## CC(C)C[C@@H]1NC(=O)[C@@H]2C[C@@H](O)CN2C1=O [Compound 5, Cyclo (L-Leu-L-Hyp)]
[1]; [12]
  Root length: 19.7 ± 0.69 mm
  Shoot length: 28.7 ± 0.87 mm
[1]; [9]
  Root length: 20.5 ± 0.87 mm
  Shoot length: 25.4 ± 0.83 mm
[1]; [13]
  Root length: 13.9 ± 0.61 mm
  Shoot length: 17.1 ± 0.76 mm
[1]; [10]
  Root length: 15.7 ± 0.58 mm
  Shoot length: 15.6 ± 0.28 mm

## O=C1[C@@H]2C[C@@H](O)CN2C(=O)[C@@H]2CCCN12 [Compound 9, Cyclo(L-Pro-L-Hyp)]
Cucumber seedlings; compound 1 × 10^-6 M during germination (3 days)
  Dried stem weight: 104.9 ± 7.37 mg
Cucumber seedlings; compound 1 × 10^-8 M during germination (3 days)
  Dried stem weight: 95.5 ± 3.25 mg
Azalea cuttings
  Protection of azaleas against salt-stress (rate of azalea budding, FIG. 1): protecting azaleas against salt-stress
Tomato seedlings; compound 1 × 10^-6 M during germination (4 days)
  Dried stem and leaves weight: 111.4 ± 8.8 mg
Tomato seedlings; compound 1 × 10^-8 M during germination (4 days)
  Dried stem and leaves weight: 141.4 ± 14.4 mg
Rice seedlings; [14]
  Root length: 67.7 ± 23.84 mm
  Shoot length: 70.2 ± 3.73 mm
Rice seedlings; [15]
  Root length: 68.2 ± 10.42 mm
  Shoot length: 63.4 ± 2.18 mm
Rice seedlings; [16]
  Root length: 39.6 ± 1.80 mm
  Shoot length: 30.0 ± 2.29 mm
Rice seedlings; [17]
  Root length: 46.7 ± 9.51 mm
  Shoot length: 27.1 ± 1.55 mm
[1]; [12]
  Root length: 19.5 ± 0.96 mm
  Shoot length: 28.8 ± 0.99 mm
[1]; [9]
  Root length: 21.8 ± 0.86 mm
  Shoot length: 27.1 ± 0.83 mm
[1]; [18]
  Root length: 15.9 ± 0.44 mm
  Shoot length: 17.3 ± 0.42 mm
[1]; [11]
  Root length: 14.0 ± 0.49 mm
  Shoot length: 16.0 ± 0.64 mm

## O=C1[C@@H]2C[C@@H](O)CN2C(=O)[C@@H]2C[C@@H](O)CN12 [Compound 13, Cyclo(L-Hyp-L-Hyp)]
[1]; [19]
  Root length: 38.5 ± 1.66 mm
  Shoot length: 29.4 ± 0.61 mm
[1]; [20]
  Root length: 38.1 ± 2.03 mm
  Shoot length: 30.5 ± 0.59 mm
[1]; [6]
  Root length: 35.6 ± 2.28 mm
  Shoot length: 21.4 ± 0.69 mm
[1]; [21]
  Root length: 37.9 ± 1.58 mm
  Shoot length: 21.9 ± 0.40 mm

## O=C1[C@@H]2C[C@H](O)CN2C(=O)[C@@H]2C[C@H](O)CN12 [Compound 14, Cyclo(L-aHyp-L-aHyp)]
[1]; [19]
  Root length: 43.2 ± 1.69 mm
  Shoot length: 31.8 ± 0.57 mm
[1]; [5]
  Root length: 38.2 ± 1.57 mm
  Shoot length: 30.4 ± 0.60 mm
[1]; [6]
  Root length: 35.0 ± 1.77 mm
  Shoot length: 21.8 ± 0.58 mm
[1]; [22]
  Root length: 35.3 ± 1.93 mm
  Shoot length: 22.6 ± 0.83 mm

## [Cl-].[Na+] [NaCl, sodium chloride]
[2]; 0.1% NaCl in water culture
  Root length: 53.3 ± 2.61 mm
  Shoot length: 78.0 ± 1.74 mm
[2]; 0.2% NaCl in water culture
  Root length: 39.7 ± 2.02 mm
  Shoot length: 77.6 ± 1.63 mm
[2]; 0.3% NaCl in water culture
  Root length: 37.8 ± 1.48 mm
  Shoot length: 79.2 ± 1.48 mm
[2]; 0.5% NaCl in water culture
  Root length: 33.8 ± 1.76 mm
  Shoot length: 45.3 ± 1.82 mm
[2]; 0.75% NaCl in water culture
  Root length: 32.9 ± 1.07 mm
  Shoot length: 34.7 ± 0.66 mm
[2]; 1.0% NaCl in water culture
  Root length: 34.0 ± 1.75 mm
  Shoot length: 28.2 ± 0.47 mm
[2]; Table 1, result in words
  Rice growth with NaCl in the medium: apparently inhibited

Reference: US5446021A, “Agricultural and horticultural compositions inducing resistance in plants against salt- and water-stress” (Nippon Zoki Pharmaceutical Co., Ltd., priority 1988, dated 1995)
